Data on 15 compounds can be found in patent US12172983B2, “EGFR inhibitors” (Blueprint Medicines Corporation, priority 2019, dated 2024).

Test [1] concerns the target T1, EGFR (L858R T790M C797S) (Homo sapiens, UniProt P00533, C797S/L858R/T790M).
T1 construct: purchased SignalChem E10-122VG
Nature of the test: Biochemical EGFR inhibition assay (Caliper mobility shift), EGFR LRTMCS mutant. To be noted: inhibitory activity against EGFR LRTMCS mutant; apparent IC50; read-out: Ext Enz LRTMCS. On the procedure:
Reactions proceeded until between 10% to 20% total peptides were phosphorylated at room temperature (25° C.) and were terminated with 35 mM 2,2′,2″,2′″-(ethane-1,2-diyldinitrilo)tetraacetic acid (EDTA). Product was detected using the Caliper mobility shift detection method where the phosphorylated peptide (product) and substrate were electrophoretically separated and measured. Percent activity was plotted against log concentration of compound and points to generate an apparent IC50.

Test [2] concerns phosphorylation of EGFR (Tyr1068) in NCI-H1975 cell line that harbors the EGFR L858R T790M mutations. Nature of the test: NCI-H1975 pEGFR AlphaLISA assay. It counts as cell-based. To be noted: 4-5 hours incubation, read-out: Ext pEGFR H1975. Here is the method: Inhibitory effects of the compounds of the disclosure were evaluated in cellular assays that measure level of intracellular phosphorylation of EGFR in NCI-H1975 cell line that harbors the EGFR L858R T790M mutations (ATCC, CRL-5908) using AlphaLISA sureFire ultra p-EGFR (Tyr1068) assay kit (PerkinElmer, ALSU-PEGFR-A50K). The NCI-H1975 cells were seeded at 12.5K/well in 22 μL into 384 well opti plate (PerkinElmer, 6007299) and adhering overnight at 37 C/5% CO2. On the next day, the test compounds and DMSO control were added into H1975 cell plate followed by incubation at 37 C/5% CO2 for 4-5 hours. The cells were then spin down in the 384-well plate and lysed with 10 μL of 1×AlphaLISA lysis buffer followed by shaking at 600 rpm for 10 minutes at room temperature. After that, 5 μL of an acceptor bead mix was added to each well followed by incubation at room temperature for 1.5-2 h in dark. Then 5 μL of a donor bead mix was added to each well followed by overnight incubation at room temperature in dark. On the next day, the plate was read at a compatible plate reader to obtain pEGFR signal. Percent of pEGFR inhibition was plotted against log concentration of compounds to generate IC50 values.

[3] abbreviates: inhibition of phosphorylation of mutant EGFR in NCI-H1975 cells.
Setting [4] is: Homo sapiens, NCI-H1975, inhibition of phosphorylation of mutant EGFR in NCI-H1975 cells.

Read-outs that look alike come from different tables or passages of the source. Some results are limits rather than exact numbers.

T1 sequence (P00533 25-1210 T790M/C797S/L858R): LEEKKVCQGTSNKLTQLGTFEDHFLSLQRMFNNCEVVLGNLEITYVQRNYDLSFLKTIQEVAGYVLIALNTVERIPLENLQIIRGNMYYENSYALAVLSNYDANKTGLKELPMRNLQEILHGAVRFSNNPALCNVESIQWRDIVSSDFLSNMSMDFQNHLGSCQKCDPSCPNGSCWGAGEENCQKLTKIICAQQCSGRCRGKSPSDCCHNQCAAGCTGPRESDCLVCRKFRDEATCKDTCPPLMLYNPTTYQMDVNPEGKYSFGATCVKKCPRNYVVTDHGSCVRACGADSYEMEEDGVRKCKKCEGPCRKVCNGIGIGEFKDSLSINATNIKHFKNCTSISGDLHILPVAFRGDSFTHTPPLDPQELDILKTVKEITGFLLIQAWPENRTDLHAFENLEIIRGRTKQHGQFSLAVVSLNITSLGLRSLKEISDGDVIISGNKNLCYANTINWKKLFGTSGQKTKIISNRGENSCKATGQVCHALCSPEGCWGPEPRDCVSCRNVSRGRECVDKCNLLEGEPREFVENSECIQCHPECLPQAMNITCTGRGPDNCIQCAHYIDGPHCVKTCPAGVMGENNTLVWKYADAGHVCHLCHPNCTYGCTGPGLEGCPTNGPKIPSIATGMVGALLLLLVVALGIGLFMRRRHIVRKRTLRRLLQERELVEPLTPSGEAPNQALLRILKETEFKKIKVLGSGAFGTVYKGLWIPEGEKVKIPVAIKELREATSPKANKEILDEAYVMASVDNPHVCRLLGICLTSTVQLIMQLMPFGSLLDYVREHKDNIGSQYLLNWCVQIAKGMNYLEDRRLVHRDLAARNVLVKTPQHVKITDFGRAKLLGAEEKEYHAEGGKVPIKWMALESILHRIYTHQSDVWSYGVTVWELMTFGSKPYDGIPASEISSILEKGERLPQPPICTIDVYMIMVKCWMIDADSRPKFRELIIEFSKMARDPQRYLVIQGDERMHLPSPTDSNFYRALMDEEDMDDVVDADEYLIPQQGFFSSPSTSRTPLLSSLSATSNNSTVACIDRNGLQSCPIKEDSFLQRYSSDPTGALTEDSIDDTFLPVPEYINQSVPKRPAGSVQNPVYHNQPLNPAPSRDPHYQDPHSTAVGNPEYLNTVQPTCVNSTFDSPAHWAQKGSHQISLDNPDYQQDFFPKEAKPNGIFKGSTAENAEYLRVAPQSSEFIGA

In the case of `CC(C)c1cnc(N2CC(CS(C)(=O)=O)C2)c2cnc(Nc3ccnc(N4C[C@H]5COC[C@H]5C4)n3)cc12` [Compound 14, N-{2-[(3aR,6aS)-hexahydro-1H-furo[3,4-c]pyrrol-5-yl]pyrimidin-4-yl}-8-[3-(methanesulfonylmethyl)azetidin-1-yl]-5-(propan-2-yl)-2,7-naphthyridin-3-amine or N-{2-[(3aS,6aR)-hexahydro-1H-furo[3,4-c]pyrrol-5-yl]pyrimidin-4-yl}-8-[3-(methanesulfonylmethyl)azetidin-1-yl]-5-(propan-2-yl)-2,7-naphthyridin-3-amine], the IC50 was 15.1 to 20 nM in test [1] and 30.1 to 50 nM in test [2] (setting [3]).

`CC(C)c1cnc(N2CC(CS(C)(=O)=O)C2)c2cnc(Nc3ccnc(N4C[C@H](F)[C@@H](F)C4)n3)cc12` (single isomer, unassigned) [Compound 9, N-{2-[(3R,4R)-3,4-difluoropyrrolidin-1-yl]pyrimidin-4-yl}-8-[3-(methanesulfonylmethyl)azetidin-1-yl]-5-(propan-2-yl)-2,7-naphthyridin-3-amine or N-{2-[(3S,4S)-3,4-difluoropyrrolidin-1-yl]pyrimidin-4-yl}-8-[3-(methanesulfonylmethyl)azetidin-1-yl]-5-(propan-2-yl)-2,7-naphthyridin-3-amine]: the IC50 in test [1] was not above 15 nM; in test [2] (setting [3]) it was 10.1 to 20 nM.

`COC1(CN)CCN(c2nccc(Nc3cc4c(C(C)C)ccc(N5C[C@H](CS(C)(=O)=O)[C@H]5C)c4cn3)n2)CC1` [Compound 169, N-{2-[4-(aminomethyl)-4-methoxypiperidin-1-yl]pyrimidin-4-yl}-8-[(2R,3S)-3-(methanesulfonylmethyl)-2-methylazetidin-1-yl]-5-(propan-2-yl)isoquinolin-3-amine]: the values for the IC50 in test [1] and in test [2] (setting [4]) were 15.1 to 20 nM and 30.1 to 50 nM, respectively.

As for `CC(C)c1ccc(N2C[C@H](CS(C)(=O)=O)[C@H]2C)c2cnc(Nc3cnnc(N4CC[C@@H](O)[C@@](C)(F)C4)n3)cc12` (single isomer, unassigned) [Compound 130], the IC50 was not above 15 nM in test [1] and not above 10 nM in test [2] (setting [4]).

For the compound `CO[C@@H]1CCN(c2nccc(Nc3cc4c(C(C)C)ccc(N5C[C@H](CS(C)(=O)=O)[C@H]5C)c4cn3)n2)C[C@@H]1OCCO` (single isomer, unassigned) [Compound 296, 2-{[(3S,4R)-1-[4-({8-[(2R,3S)-3-(methanesulfonylmethyl)-2-methylazetidin-1-yl]-5-(propan-2-yl)isoquinolin-3-yl}amino)pyrimidin-2-yl]-4-methoxypiperidin-3-yl]oxy}ethan-1-ol or 2-{[(3R,4S)-1-[4-({8-[(2R,3S)-3-(methanesulfonylmethyl)-2-methylazetidin-1-yl]-5-(propan-2-yl)isoquinolin-3-yl}amino)pyrimidin-2-yl]-4-methoxypiperidin-3-yl]oxy}ethan-1-ol], the IC50 was 30.1 to 100 nM in test [1] and 10.1 to 20 nM in test [2] (setting [4]).

Turning to `CO[C@@H]1CCN(c2nccc(Nc3cc4c(F)ccc(N5C[C@H](CS(C)(=O)=O)[C@H]5C)c4cn3)n2)C[C@]1(C)F` (single isomer, unassigned) [Compound 84], the IC50 was not above 15 nM in test [1] and 10.1 to 20 nM in test [2] (setting [4]).

`CC(C)c1ccc(N2C[C@H](CS(C)(=O)=O)[C@H]2C)c2cnc(Nc3ccnc(N4CC[C@@H](O)[C@@H](F)C4)n3)cc12` [Compound 62, (3S,4R)-3-fluoro-1-(4-((5-isopropyl-8-((2R,3S)-2-methyl-3-((methylsulfonyl)methyl)azetidin-1-yl)isoquinolin-3-yl)amino)pyrimidin-2-yl)piperidin-4-ol]: the IC50 was not above 15 nM in test [1] and not above 10 nM in test [2] (setting [4]).

`CC(C)c1cnc(N2C[C@H](CS(C)(=O)=O)[C@H]2C)c2cnc(Nc3ccnc(N4CC[C@@](C)(O)C(F)(F)C4)n3)cc12` (single isomer, unassigned) [Compound 215, (4R)-3,3-difluoro-1-[4-({8-[(2R,3S)-3-(methanesulfonylmethyl)-2-methylazetidin-1-yl]-5-(propan-2-yl)-2,7-naphthyridin-3-yl}amino)pyrimidin-2-yl]-4-methylpiperidin-4-ol or (4S)-3,3-difluoro-1-[4-({8-[(2R,3S)-3-(methanesulfonylmethyl)-2-methylazetidin-1-yl]-5-(propan-2-yl)-2,7-naphthyridin-3-yl}amino)pyrimidin-2-yl]-4-methylpiperidin-4-ol]: the IC50 in test [1] is not above 15 nM; in test [2] (setting [4]), not above 10 nM.

Turning to `CN(C)CCS(=O)(=O)CC1CN(c2cccc3cc(Nc4ccnc(N5C[C@@H](F)[C@@H](O)C(C)(C)C5)n4)ncc23)C1` (single isomer, unassigned) [Compound 192, (4S,5R)-1-(4-{[8-(3-{[2-(dimethylamino)ethanesulfonyl]methyl}azetidin-1-yl)isoquinolin-3-yl]amino}pyrimidin-2-yl)-5-fluoro-3,3-dimethylpiperidin-4-ol or (4R,5S)-1-(4-{[8-(3-{[2-(dimethylamino)ethanesulfonyl]methyl}azetidin-1-yl)isoquinolin-3-yl]amino}pyrimidin-2-yl)-5-fluoro-3,3-dimethylpiperidin-4-ol], the IC50 in test [1] is not above 15 nM; in test [2] (setting [4]), 10.1 to 20 nM.

Regarding `CCS(=O)(=O)C[C@H]1CN(c2ccc(C(C)C)c3cc(Nc4ccnc(N5CC[C@H](OC)[C@@H](O)C5)n4)ncc23)[C@@H]1C` (single isomer, unassigned) [Compound 177, (3S,4S)-1-(4-(8-((2R,3S)-3-(ethylsulfonylmethyl)-2-methylazetidin-1-yl)-5-isopropylisoquinolin-3-ylamino)pyrimidin-2-yl)-4-methoxypiperidin-3-ol or (3R,4R)-1-(4-(8-((2R,3S)-3-(ethylsulfonylmethyl)-2-methylazetidin-1-yl)-5-isopropylisoquinolin-3-ylamino)pyrimidin-2-yl)-4-methoxypiperidin-3-ol], the figures for the IC50 in test [1] and in test [2] (setting [4]) were not above 15 nM and not above 10 nM, respectively.

Consider `CC(C)c1ccc(N2CC(CS(C)(=O)=O)C2)c2cnc(Nc3ccnc(N4CCC5(CC4)COCCO5)n3)cc12` [Compound 167, N-(2-{1,4-dioxa-9-azaspiro[5,5]undecan-9-yl}pyrimidin-4-yl)-8-[3-(methanesulfonylmethyl)azetidin-1-yl]-5-(propan-2-yl)isoquinolin-3-amine], for which the figures for the IC50 in test [1] and in test [2] (setting [4]) were not above 15 nM and 10.1 to 20 nM, respectively.

For the compound `CC(C)c1ccc(N2C[C@H](CS(C)(=O)=O)[C@H]2C)c2cnc(Nc3ccnc(N4CC[C@H](OCCN(C)C)[C@H](F)C4)n3)cc12` [Compound 253, N-{2-[(3R,4S)-4-[2-(dimethylamino)ethoxy]-3-fluoropiperidin-1-yl]pyrimidin-4-yl}-8-[(2R,3S)-3-(methanesulfonylmethyl)-2-methylazetidin-1-yl]-5-(propan-2-yl)isoquinolin-3-amine], the IC50 in test [1] is not above 15 nM; in test [2] (setting [4]) it was not above 10 nM.

For the compound `CC(C)c1cc(F)c(N2CC(CS(C)(=O)=O)C2)c2cnc(Nc3ccnc(N4CC[C@@H](O)[C@@](C)(F)C4)n3)cc12` (single isomer, unassigned) [Compound 157], the IC50 was not above 15 nM in test [1] and not above 10 nM in test [2] (setting [4]).

For the compound `CC(C)c1ccc(N2CC(CS(=O)(=O)CCN(C)C)C2)c2cnc(Nc3ccnc(N4CC[C@@H](O)[C@@](C)(F)C4)n3)cc12` (single isomer, unassigned) [Compound 239], the values for the IC50 in test [1] and in test [2] (setting [4]) were not above 15 nM and not above 10 nM, respectively.

Turning to `CNCCO[C@@H]1CCN(c2nccc(Nc3cc4c(C(C)C)ccc(N5C[C@H](CS(C)(=O)=O)[C@H]5C)c4cn3)n2)CC1(F)F` (single isomer, unassigned) [Compound 300, N-{2-[(4R)-3,3-difluoro-4-[2-(methylamino)ethoxy]piperidin-1-yl]pyrimidin-4-yl}-8-[(2R,3S)-3-(methanesulfonylmethyl)-2-methylazetidin-1-yl]-5-(propan-2-yl)isoquinolin-3-amine or N-{2-[(4S)-3,3-difluoro-4-[2-(methylamino)ethoxy]piperidin-1-yl]pyrimidin-4-yl}-8-[(2R,3S)-3-(methanesulfonylmethyl)-2-methylazetidin-1-yl]-5-(propan-2-yl)isoquinolin-3-amine], the IC50 was not above 15 nM in test [1] and not above 10 nM in test [2] (setting [4]).
